Measurements: patent US8642620B2, “Heteroaryl-substituted amides comprising an unsaturated or cyclic linker group, and their use as pharmaceuticals” (Sanofi, priority 2005, dated 2014)
Structures can show the parent of a compound that is named as a salt.

What was measured:
eNOS promoter = assay: Activation of eNOS transcription (eNOS promoter-luciferase reporter gene assay); assay type: cell-based; settings: human endothelial cell line stably transfected with eNOS promoter-luciferase construct; 18 h incubation; EC50 determined graphically; read-out: EC50 values of transcription induction ratios (TIR)
Experimental: Activation of eNOS transcription was measured as described in detail by Li et al., “Activation of protein kinase C alpha and/or epsilon enhances transcription of the human endothelial nitric oxide synthase gene”, Mol. Pharmacol. 53 (1998) 630. Briefly, a 3.5 kB long fragment 5′ of the starting codon of the eNOS gene was cloned, sequenced and cloned in firefly luciferase expression plasmids to monitor activation of the eNOS promoter by reporter gene activity. A human endothelial cell line stable transfected and expressing this promoter-reporter construct was used for compound testing. Cells were incubated for 18 h with the compounds.
All compounds were dissolved in sterile dimethyl sulfoxide (DMSO). A final concentration of 0.5% DMSO in complete medium was allowed. Induction of reporter gene expression in these cells was measured using a standard luciferase assay system (Promega, Cat. No. E150) according to the manufacturer's instructions. Luciferase induction in cells incubated with compounds were compared to those incubated with solvent alone. The ratio of both activities (transcription induction ratio, TIR) was plotted as a function of compound concentration. Typically, TIR values started at low concentrations at a ratio of 1, indicating no compound effect, and extended up to a maximum TIR value TIR(max) which indicates the increase of the eNOS transcription. EC50 values of transcription induction ratios as a function of compound concentration were determined graphically.

O=C1CCCC(=O)N1CC#Cc1ccc(-c2ccccc2F)nc1 [Example 2, 1-(3-(6-(2-Fluorophenyl)pyridin-3-yl)prop-2-ynyl)piperidine-2,6-dione trifluoroacetic acid salt] gave an EC50 (eNOS promoter) of 500 to 5000 nM.

With CC1(C)NC(=O)N(C/C=C/c2ccc(-c3ccc(F)cc3)nc2)C1=O [Example 11, 3-(3-(6-(4-Fluorophenyl)pyridin-3-yl)allyl)-5,5-dimethylimidazolidine-2,4-dione trifluoroacetic acid salt] the EC50 (eNOS promoter) was 500 to 5000 nM.

O=c1ccccn1C/C=C/c1nc(-c2ccc(F)cc2)cs1 [Example 3, 1-(3-(4-(4-Fluorophenyl)thiazol-2-yl)allyl)-1H-pyridin-2-one] showed an EC50 (eNOS promoter) of 500 to 5000 nM.

Work on O=C1CNC(=O)N1C1CC1c1ccc(-c2ccc(F)c(Cl)c2)nc1 (racemic) [Example 21, 3-((E)-2-(6-(3-Chloro-4-fluorophenyl)pyridin-3-yl)cyclopropyl)imidazolidine-2,4-dione] yielded an EC50 (eNOS promoter) of less than 500 nM and a melting point of 172 °C.
